{
  "source": "paper PMC6714113",
  "about": "(Research in Pharmaceutical Sciences, 2019)",
  "origin": "cited, not measured here",
  "settings": "read-out: IC50 (cytotoxicity)",
  "data": [
    {"smiles": "N[C@@H](Cc1ccc(B(O)O)cc1)C(=O)O", "note": "[BPA, boronophenylalanine]", "values": [
      {"measurement": "IC50", "result": "> 4", "unit": "mM"}
    ]}
  ]
}
